Results from patent US5278181A, “Soluble alkyl[5-[amino (phenyl)methyl]-1H-benzimidazol-2-yl] carbamate anthelmintics” (priority 1992, dated 1994).
Where “and” joins values, the source holds several entries; their conditions need not be identical. Equal values may be shown once.

Test system: Brugia pahangi
Assay: Antifilarial dual infection screen in jirds: adult B. pahangi burden
Assay type: in vivo, in Mongolian jirds
Source text: Dual infections of the filarial worms Brugia pahangi and Acanthocheilonema viteae in jirds are used routinely for antifilarial screening [McCall, J. W., McTier, T. L., and Rowan, S. J., "In vivo models for evaluating potential antifilarial agents", Onchocerciasis/Filariasis (Proceedings of a Symposium sponsored by the World Health Organization), Kalamazoo, Mich., Apr. 8-10, 23-24 (1986)].
For this dual infection screen, male Mongolian jirds weighing 50-60 g are infected SC with 10 (5 male and 5 female) adult A. viteae, transplanted under sodium pentobarbital anesthesia (48 mg/kg) from donor hamsters infected SC 8 weeks earlier. Two weeks later, 20 (10 male and 10 female) adult B. pahangi, taken from donor jirds infected IP 8 weeks earlier, are transplanted into the peritoneal cavity of each jird under sodium pentobarbital anesthesia. After an additional week, when the jirds have acceptable levels of microfilaremia, they are randomly allocated to treatment groups of 3 animals each and a nontreated group of 4-6 animals. Microfilaremia is determined on days 0 (just prior to the first dose), 4 and 56 post-treatment. Unless indicated otherwise, compounds are suspended in hydroxyethylcellulose (0.5%) - Tween 80 (0.1%) and administered SC at 100 mg/kg/day for 5 consecutive days. All jirds are killed on day 56 post-treatment to determine the effects of drugs on adults of A. viteae and B. pahangi. Live worms are identified as to species, noted as to sex, and counted. The number of dead and/or encapsulated worms is also recorded. A reduction of ≥80% in microfilaremia or ≥50% in adult worm burden (either species) compared with pre-treatment microfilaremia or non-treated control worm burden, respectively, is considered to be significant. For secondary testing with this dual infection screen, groups of 7 animals each are used. For oral dosing, drugs are dissolved or suspended in hydroxyethylcellulose - Tween 80 and administered by gavage.

COC(=O)Nc1nc2cc(C(N)c3ccc(F)cc3)ccc2[nH]1.Cl.Cl (racemic) [Example 2, Methyl (±)-[5-[Amino(4Fluorophenyl)Methyl]-1H-Benzimidazol-2-yl]Carbamate Dihy drochloride Salt]
% Macrofilarial reduction, B. pahangi (1.56 mg/kg/day × 5 days, SC, day 56): 22% | % Macrofilarial reduction, B. pahangi (3.13 mg/kg/day × 5 days, SC, day 56, 3.13 mg/kg/day): 84% and 88% | % Macrofilarial reduction, B. pahangi (6.25 mg/kg/day × 5 days, SC, day 56, 6.25 mg/kg/day): 96% and 98% | % Macrofilarial reduction, B. pahangi (12.5 mg/kg/day × 1 day, SC, day 56): 72% | % Macrofilarial reduction, B. pahangi (12.5 mg/kg/day × 5 days, SC, day 56): 100% | % Macrofilarial reduction, B. pahangi (25 mg/kg/day × 1 day, SC, day 56): 100% | % Macrofilarial reduction, B. pahangi (25 mg/kg/day × 5 days, SC, day 56): 100% | % Macrofilarial reduction, B. pahangi (75 mg/kg/day × 5 days, oral, day 56): 30% | % Macrofilarial reduction, B. pahangi (100 mg/kg/day × 5 days, oral, day 56): 32%
